The conditions of series [1]: compared with verapamil hydrochloride; cited from earlier work.
Series [2] has as its system spontaneously hypertensive rats (SHR). The note with it: clinically useful reference agents; cited from earlier work.
For series [3] the test system is unchanged. In words: Antihypertensive activity in unanesthetized spontaneously hypertensive rats (SHR). The series is classed as in vivo, rat. The note with it: for duration of antihypertensive effect: oral. The protocol:
The test procedures employed to measure these activities are described below.
Male, unanesthetized spontaneously hypertensive rats (SHR), 11 to 16 weeks old were used in this test procedure. […]
Initial mean arterial blood pressure was measured directly via a previously implanted arterial catheter immediately before administration of the test compound. Blood pressure readings were made at hourly intervals, 24 hours per day, for 3 days following oral administration of the test compound and at 5, 10, and 15 minutes following intravenous administration. […] Statistical comparisons were made using the analysis of variance test with two sided probability calculations.

The subject of another series is anesthetized beagle dogs. Put plainly: Antihypertensive effect in anesthetized beagle dogs, i.v. It is filed as in vivo, beagle dog. The note with it: for maximum hypotensive effect: compounds of the invention, verapamil and diltiazem compared.
The target in series [4] is T1, Isolated thoracic aortic rings from the male SHR (Rattus norvegicus, UniProt P22002). The note with it: reference drugs, potassium depolarized vascular smooth muscle; cited from earlier work.
T1 sequence (P22002 whole entry): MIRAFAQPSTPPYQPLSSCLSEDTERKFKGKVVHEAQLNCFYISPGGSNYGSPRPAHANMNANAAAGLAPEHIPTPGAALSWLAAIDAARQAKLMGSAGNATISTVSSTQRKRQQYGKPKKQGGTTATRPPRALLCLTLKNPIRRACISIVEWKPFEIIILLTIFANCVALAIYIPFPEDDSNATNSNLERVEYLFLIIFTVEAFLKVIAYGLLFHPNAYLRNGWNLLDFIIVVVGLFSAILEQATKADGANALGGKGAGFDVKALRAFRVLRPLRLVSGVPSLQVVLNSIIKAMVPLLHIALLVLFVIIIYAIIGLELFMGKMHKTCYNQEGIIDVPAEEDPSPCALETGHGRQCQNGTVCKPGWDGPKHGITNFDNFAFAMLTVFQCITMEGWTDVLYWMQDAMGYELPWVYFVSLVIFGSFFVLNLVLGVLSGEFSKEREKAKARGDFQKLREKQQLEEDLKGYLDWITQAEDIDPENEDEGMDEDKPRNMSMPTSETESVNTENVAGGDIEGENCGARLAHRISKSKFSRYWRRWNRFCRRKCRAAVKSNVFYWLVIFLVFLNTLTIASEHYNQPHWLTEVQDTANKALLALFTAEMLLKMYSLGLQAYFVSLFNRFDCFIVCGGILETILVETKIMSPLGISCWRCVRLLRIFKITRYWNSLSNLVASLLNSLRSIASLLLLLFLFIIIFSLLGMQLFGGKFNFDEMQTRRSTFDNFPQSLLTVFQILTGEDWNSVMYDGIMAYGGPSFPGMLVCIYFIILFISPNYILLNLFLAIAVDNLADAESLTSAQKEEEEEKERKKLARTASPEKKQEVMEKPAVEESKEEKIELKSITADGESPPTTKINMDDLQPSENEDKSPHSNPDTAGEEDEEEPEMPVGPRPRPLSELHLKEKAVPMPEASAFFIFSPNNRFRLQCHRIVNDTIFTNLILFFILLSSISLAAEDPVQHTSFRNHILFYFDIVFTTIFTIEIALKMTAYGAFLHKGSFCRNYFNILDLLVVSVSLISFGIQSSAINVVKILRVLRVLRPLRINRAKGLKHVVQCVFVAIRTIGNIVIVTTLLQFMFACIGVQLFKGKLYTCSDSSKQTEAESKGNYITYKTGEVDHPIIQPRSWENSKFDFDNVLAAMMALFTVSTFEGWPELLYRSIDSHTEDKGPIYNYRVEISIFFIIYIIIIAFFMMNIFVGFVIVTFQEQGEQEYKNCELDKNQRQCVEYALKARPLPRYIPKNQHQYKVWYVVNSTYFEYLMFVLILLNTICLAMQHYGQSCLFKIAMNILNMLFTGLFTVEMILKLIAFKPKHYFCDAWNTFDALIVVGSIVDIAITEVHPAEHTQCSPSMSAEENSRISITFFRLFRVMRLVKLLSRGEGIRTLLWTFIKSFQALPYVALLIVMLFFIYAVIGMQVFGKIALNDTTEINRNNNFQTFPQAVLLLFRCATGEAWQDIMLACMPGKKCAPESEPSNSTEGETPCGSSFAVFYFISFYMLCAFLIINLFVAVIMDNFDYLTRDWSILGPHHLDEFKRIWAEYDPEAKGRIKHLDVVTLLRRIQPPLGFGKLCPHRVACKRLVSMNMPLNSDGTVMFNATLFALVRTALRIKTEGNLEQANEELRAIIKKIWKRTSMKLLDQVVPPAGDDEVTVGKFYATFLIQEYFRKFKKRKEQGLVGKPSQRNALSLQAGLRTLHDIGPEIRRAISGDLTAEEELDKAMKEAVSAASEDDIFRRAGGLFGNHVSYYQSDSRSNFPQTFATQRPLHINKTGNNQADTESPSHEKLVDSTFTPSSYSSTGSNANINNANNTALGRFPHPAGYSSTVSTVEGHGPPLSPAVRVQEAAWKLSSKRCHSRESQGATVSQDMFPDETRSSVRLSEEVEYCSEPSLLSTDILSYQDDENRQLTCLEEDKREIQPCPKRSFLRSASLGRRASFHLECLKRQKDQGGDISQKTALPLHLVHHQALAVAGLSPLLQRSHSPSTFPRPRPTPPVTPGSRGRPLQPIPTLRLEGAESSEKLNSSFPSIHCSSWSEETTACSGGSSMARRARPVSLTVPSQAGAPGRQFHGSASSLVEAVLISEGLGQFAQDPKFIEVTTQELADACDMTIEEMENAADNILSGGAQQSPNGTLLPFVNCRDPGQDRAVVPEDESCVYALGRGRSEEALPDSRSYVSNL
T1 sequence (P54290 25-944 partner limits assumed): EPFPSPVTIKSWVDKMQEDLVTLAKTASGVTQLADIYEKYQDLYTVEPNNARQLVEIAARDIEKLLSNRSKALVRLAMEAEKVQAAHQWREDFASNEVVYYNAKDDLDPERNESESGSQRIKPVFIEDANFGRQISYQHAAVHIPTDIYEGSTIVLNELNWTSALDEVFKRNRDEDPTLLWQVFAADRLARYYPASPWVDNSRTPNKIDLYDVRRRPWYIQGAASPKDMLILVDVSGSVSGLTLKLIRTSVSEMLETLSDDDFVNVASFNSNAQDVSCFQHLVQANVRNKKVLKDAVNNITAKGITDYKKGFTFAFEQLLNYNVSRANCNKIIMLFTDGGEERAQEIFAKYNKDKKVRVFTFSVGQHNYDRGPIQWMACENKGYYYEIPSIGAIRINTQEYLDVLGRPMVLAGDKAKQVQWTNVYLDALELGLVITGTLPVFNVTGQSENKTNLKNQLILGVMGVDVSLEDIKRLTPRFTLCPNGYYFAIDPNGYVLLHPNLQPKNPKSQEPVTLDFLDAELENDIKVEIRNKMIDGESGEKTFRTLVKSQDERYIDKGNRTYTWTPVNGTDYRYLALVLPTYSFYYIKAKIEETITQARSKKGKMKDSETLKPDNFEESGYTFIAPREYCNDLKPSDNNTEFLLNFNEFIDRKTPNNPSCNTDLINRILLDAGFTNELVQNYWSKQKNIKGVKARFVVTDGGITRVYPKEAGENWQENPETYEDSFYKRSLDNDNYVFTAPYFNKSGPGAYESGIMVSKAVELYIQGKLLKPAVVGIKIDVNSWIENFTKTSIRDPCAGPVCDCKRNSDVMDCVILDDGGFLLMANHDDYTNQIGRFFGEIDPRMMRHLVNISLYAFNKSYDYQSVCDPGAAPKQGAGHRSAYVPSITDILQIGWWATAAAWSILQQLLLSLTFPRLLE
T1 sequence (P54290 945-1091 partner limits assumed): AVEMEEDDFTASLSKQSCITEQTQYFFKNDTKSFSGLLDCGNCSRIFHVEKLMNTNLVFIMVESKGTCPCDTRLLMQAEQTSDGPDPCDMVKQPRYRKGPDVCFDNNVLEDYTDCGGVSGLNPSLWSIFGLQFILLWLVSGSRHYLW
Series [5] concerns the target T1, Isolated thoracic aortic rings from the male SHR. In words: Calcium antagonism in vascular smooth muscle (isolated thoracic aortic rings from male SHR). The note with it: read-out: pA2 Ca^++ Antagonism (converted). It is filed as cell-based. The protocol:
Isolated thoracic aortic rings from the male SHR were utilized in this test procedure.
The excised aortic ring was mounted in a tissue bath containing modified Kreb's solution. After depolarization of the tissue with potassium chloride (100 mM), calcium in cumulative concentrations of 1×10^-3 M, 3.2×10^-3 M, and 1×10^-2 M was injected into the bath to produce vascular smooth muscle contraction. The developed tension (in grams) was measured and control dose-response values obtained. After one hour of incubation with a test compound at 1×10^-6 M concentration, the same doses of calcium ions were repeated. The log dose-response curves of the control and after treatment were analyzed by linear regression. The pA2 value was calculated as a measure of calcium antagonism of the test compound. See Van Rossum, J. M., Arch. Int. Pharmacodyn, 143, 299-330, 1963.
Calcium ions play an essential role in induction and maintenance of vascular smooth muscle contractility. In potassium depolarized vascular smooth muscle, calcium antagonists may block the entry of calcium ions into the cell or act by other mechanisms to inhibit the contractions induced by calcium ions. The inhibition of calcium ion--induced contraction of vascular smooth muscle is used to test compounds for vascular calcium antagonism. Cardiovascular diseases such as arrhythmias, angina-pectoris, hypertension, and peripheral vascular disease may be causally related to abnormalities in cellular handling of calcium ions.

Series [6] has as its system atrial-ventricular conduction. The note with it: compared with verapamil or diltiazem.
Where [7] appears, read: SHR, 10 mg/kg/day for three days.
[8] abbreviates: conscious SHR, 50 mg/kg/day for three days.
[9] abbreviates: ratio of the dose required to slow or block atrial-ventricular conduction to the dose required to lower arterial pressure by 20 mmHg.
Where [10] appears, read: ratio of the dose to decrease heart rate to the dose to lower arterial pressure.

This is an account of results in patent US4681970A, “Bicyclo-substituted phenylacetonitrile derivatives” (G. D. Searle & Co., priority 1986, dated 1987).

Where a name gives a salt, the structure may show the parent alone.

Consider `CCCCCCCCCCCCC(C#N)(CCCN(C)CCc1cccc(OC)c1)c1cccc(OC)c1` (stereo not drawn) [Anipamil, 2-(3-methoxyphenyl)-2[3-[N-[2-(3-methoxyphenyl)ethyl]methylamino]propyl]tetradecanenitrile], for which the “calcium ion antagonist activity” value in series [1] was “calcium ion antagonist activity analogous to verapamil hydrochloride”.
As to `C[C@](N)(Cc1ccc(O)c(O)c1)C(=O)O` [Aldomet], the “active in the hypertensive rat assay” value in series [2] was “active”.
Regarding `C[C@H](CS)C(=O)N1CCC[C@H]1C(=O)O` [Captopril], in series [2], the “active in the hypertensive rat assay” value is “active”.
Take `COc1ccc(CCN(C)CCCC(C#N)(c2ccc(OC)c(OC)c2)C(C)C)cc1OC` (stereo not drawn) [verapamil, α[3-[[2-(3,4-dimethoxyphenyl)ethyl]methylamino]propyl]-3,4-dimethoxy-α-(1-methylethyl)hydrochloride, reference compound]: the results for the “duration of antihypertensive effect” value in series [3] (setting [7]) and in series [3] (setting [8]) were 6 h and 14 h, respectively. Also, in series [3] (0.3 mg/kg), the “SHR -mmHg intravenous (mg/kg)” value is -30 mmHg. The maximum hypotensive effect result in the series with anesthetized beagle dogs was “approximately the same maximum hypotensive effect”.
Consider `NNc1nncc2ccccc12` [Apresoline], for which the “active in the hypertensive rat assay” value in series [2] is “active”.
On to `COc1ccc([C@@H]2Sc3ccccc3N(CCN(C)C)C(=O)[C@@H]2OC(C)=O)cc1` [diltiazem, reference compound], for which the maximum hypotensive effect entry in the series with anesthetized beagle dogs is given as “approximately the same maximum hypotensive effect”. The selectivity ratio in “in vivo” (setting [9]) and in the series “in vivo” (setting [10]) was 0.53 in each case. In series [4], the “active in vascular calcium antagonism test” value was “active”.
As for `COc1ccc2c(c1)CCC(N(C)CCCC(C#N)(c1ccc(OC)c(OC)c1)C(C)C)C2.O=C(O)CC(O)(CC(=O)O)C(=O)O` (stereo not drawn) [Example 10, 3,4-dimethoxy-α-(1-methylethyl)-α-[3-[N-methyl-N-(1,2,3,4-tetrahydro-6-methoxy-2-naphthalenyl)amino]propyl]phenylacetonitrile, citrate (1:1)], the “SHR -mmHg intravenous (mg/kg)” value in series [3] (3.0 mg/kg) is on record as -24 mmHg. In addition, in series [5], the Kb is 25.1 nM.
The corresponding values for `COc1ccc(C(C#N)(CCCN(C)C2CCc3cc(OC)c(OC)cc3C2)C(C)C)cc1OC.O=C(O)CC(O)(CC(=O)O)C(=O)O` (stereo not drawn) [Example 9, 3,4-dimethoxy-α-(1-methylethyl)-α-[3-[N-methyl-N-(1,2,3,4-tetrahydro-6,7-dimethoxy-2-naphthalenyl)amino]propyl]phenylacetonitrile, citrate (1:1)] are -30 mmHg and 126 nM.
Regarding `Clc1cccc(Cl)c1N=C1NCCN1` [Clonidine], in series [2], the “active in the hypertensive rat assay” value is listed as “active”.
For the compound `COc1ccc2c(c1)CC(N(C)CCCC(C#N)(c1ccc(OC)c(OC)c1)C(C)C)CC2.O=C(O)CC(O)(CC(=O)O)C(=O)O` (stereo not drawn) [Example 12, 3,4-dimethoxy-α-(1-methylethyl)-α-[3-[N-methyl-N-(1,2,3,4-tetrahydro-7-methoxy-2-naphthalenyl)amino]propyl]phenylacetonitrile, citrate (1:1)], the “SHR -mmHg intravenous (mg/kg)” value in series [3] (1.0 mg/kg) is -20 mmHg. The Kb in series [5] is 39.8 nM.
As for `COc1ccc(C(C#N)(CCCN(C)C2CCc3c(cccc3OC)C2)C(C)C)cc1OC.O=C(O)CC(O)(CC(=O)O)C(=O)O` (stereo not drawn) [Example 11, 3,4-dimethoxy-α-(1-methylethyl)-α-[3-[N-methyl-N-(1,2,3,4-tetrahydro-5-methoxy-2-naphthalenyl)amino]propyl]phenylacetonitrile, citrate (1:1)], the “SHR -mmHg intravenous (mg/kg)” value in series [3] (1.0 mg/kg) is listed as -29 mmHg. Also, in series [5], the Kb is 50.1 nM.
Take `COC(=O)C1=C(C)NC(C)=C(C(=O)OC)C1c1ccccc1[N+](=O)[O-]` [nifedipine]: the “active in vascular calcium antagonism test” value in series [4] was “active”.
`COc1ccc(C(C#N)(CCCN(C)C2CCc3ccccc3C2)C(C)C)cc1OC.O=C(O)CC(O)(CC(=O)O)C(=O)O` (stereo not drawn) [Example 8, 3,4-dimethoxy-α-(1-methylethyl)-α-[3-[N-methyl-N-(1,2,3,4-tetrahydro-2-naphthalenyl)amino]propyl]phenylacetonitrile, citrate (1:1)]: the “duration of antihypertensive effect” value is “approximately 12 hours” in series [3] (setting [7]) and over 24 h in series [3] (setting [8]). The “SHR -mmHg intravenous (mg/kg)” value in series [3] (0.1 mg/kg) is reported as -30 mmHg. Besides, the Kb in series [5] was 50.1 nM. In addition, in the series with anesthetized beagle dogs (compared to verapamil and diltiazem), the “slope of the dose-blood pressure response curve” value is on record as “not as steep”. Moreover, the “therapeutic ratio for atrial-ventricular block and bradycardia” value in series [6] is “more favorable therapeutic ratio for atrial-ventricular block and bradycardia than verapamil or diltiazem”. Besides, the selectivity ratio in “in vivo” (setting [9]) was 4; in “in vivo” (setting [10]) it was 3.1.
